{"source": "patent US20260262643A1", "about": "“HERBICIDAL BENZOXAZINES” (FMC CORPORATION, priority 2022, published 2026)", "key": {"wheat [1]": {"test_system": "wheat", "assay": "Test A preemergence", "format": "in vivo, Triticum aestivum", "details": "0 to 100 scale", "summary_of_the_method": "(§1)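 Loam/sand soil; pre-em directed soil spray at planting, post-em spray at 1–2 leaf (2–10 cm). Compound in non-phytotoxic solvent + surfactant. Greenhouse 10 d; visual injury vs untreated, 0 = no effect, 100 = complete control.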"}, "foxtail, giant": {"test_system": "foxtail, giant", "assay": "Test A preemergence", "format": "in vivo, Setaria faberi", "details": "0 to 100 scale", "summary_of_the_method": "as §1"}, "corn [2]": {"test_system": "corn", "assay": "Test A preemergence", "format": "in vivo, Zea mays", "details": "0 to 100 scale", "summary_of_the_method": "as §1"}, "pigweed, palmer [3]": {"test_system": "pigweed, palmer", "assay": "Test A preemergence", "format": "in vivo, Amaranthus palmeri", "details": "0 to 100 scale", "summary_of_the_method": "as §1"}, "oat, wild [4]": {"test_system": "oat, wild", "assay": "Test A postemergence", "format": "in vivo, Avena fatua", "details": "postemergence, 10 days", "summary_of_the_method": "as §1"}, "blackgrass [5]": {"test_system": "blackgrass", "assay": "Test A postemergence", "format": "in vivo, Alopecurus myosuroides", "details": "postemergence, 10 days", "summary_of_the_method": "as §1"}, "corn [6]": {"test_system": "corn", "assay": "Test A postemergence", "format": "in vivo, Zea mays", "details": "postemergence, 10 days", "summary_of_the_method": "as §1"}, "sedge, umbrella": {"test_system": "sedge, umbrella", "assay": "Test B flooded paddy test", "format": "in vivo, Cyperus difformis", "details": "250 g ai/ha, Flood, 13 days, 0 to 100 scale (0 no effect, 100 complete control)", "summary_of_the_method": "(§2)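 Flooded to 3 cm at treatment time, 2-leaf plants got the test compound applied straight into the paddy water. They then stayed under constant flood in a greenhouse for 13 days. Ratings used a 0 to 100 visual scale.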"}, "horseweed": {"test_system": "horseweed", "assay": "Test A postemergence", "format": "in vivo, Erigeron canadensis", "details": "postemergence, 10 days", "summary_of_the_method": "as §1"}, "barnyardgrass [7]": {"test_system": "barnyardgrass", "assay": "Test A postemergence", "format": "in vivo, Echinochloa crusgalli", "details": "postemergence, 10 days", "summary_of_the_method": "as §1"}, "barnyardgrass [8]": {"test_system": "barnyardgrass", "assay": "Test A preemergence", "format": "in vivo, Echinochloa crusgalli", "details": "visual injury after 10 days, 0 to 100 scale, 0 is no effect, 100 is complete control", "summary_of_the_method": "as §1"}, "blackgrass [9]": {"test_system": "blackgrass", "assay": "Test A preemergence", "format": "in vivo, Alopecurus myosuroides", "details": "0 to 100 scale", "summary_of_the_method": "as §1"}, "barnyardgrass [10]": {"test_system": "barnyardgrass", "assay": "Test B flooded paddy test", "format": "in vivo, Echinochloa crus-galli", "details": "250 g ai/ha, Flood, 13 days, 0 to 100 scale (0 no effect, 100 complete control)", "summary_of_the_method": "as §2"}, "wheat [11]": {"test_system": "wheat", "assay": "Test A postemergence", "format": "in vivo, Triticum aestivum", "details": "postemergence, 10 days", "summary_of_the_method": "as §1"}, "ragweed [12]": {"test_system": "ragweed", "assay": "Test A preemergence", "format": "in vivo, Ambrosia artemisiifolia", "details": "0 to 100 scale", "summary_of_the_method": "as §1"}, "ducksalad": {"test_system": "ducksalad", "assay": "Test B flooded paddy test", "format": "in vivo, Heteranthera limosa", "details": "250 g ai/ha, Flood, 13 days, 0 to 100 scale (0 no effect, 100 complete control)", "summary_of_the_method": "as §2"}, "oat, wild [13]": {"test_system": "oat, wild", "assay": "Test A preemergence", "format": "in vivo, Avena fatua", "details": "0 to 100 scale", "summary_of_the_method": "as §1"}, "kochia [14]": {"test_system": "kochia", "assay": "Test A preemergence", "format": "in vivo, Bassia scoparia", "details": "0 to 100 scale", "summary_of_the_method": "as §1"}, "pigweed, palmer [15]": {"test_system": "pigweed, palmer", "assay": "Test A postemergence", "format": "in vivo, Amaranthus palmeri", "details": "postemergence, 10 days", "summary_of_the_method": "as §1"}, "ryegrass, Italian [16]": {"test_system": "ryegrass, Italian", "assay": "Test A preemergence", "format": "in vivo, Lolium multiflorum", "details": "0 to 100 scale", "summary_of_the_method": "as §1"}, "rice": {"test_system": "rice", "assay": "Test B flooded paddy test", "format": "in vivo, Oryza sativa", "details": "250 g ai/ha, Flood, 13 days, 0 to 100 scale (0 no effect, 100 complete control)", "summary_of_the_method": "as §2"}, "soybean [17]": {"test_system": "soybean", "assay": "Test A preemergence", "format": "in vivo, Glycine max", "details": "0 to 100 scale", "summary_of_the_method": "as §1"}, "kochia [18]": {"test_system": "kochia", "assay": "Test A postemergence", "format": "in vivo, Bassia scoparia", "details": "postemergence, 10 days", "summary_of_the_method": "as §1"}, "ragweed [19]": {"test_system": "ragweed", "assay": "Test A postemergence", "format": "in vivo, Ambrosia artemisiifolia", "details": "postemergence, 10 days", "summary_of_the_method": "as §1"}, "ryegrass, Italian [20]": {"test_system": "ryegrass, Italian", "assay": "Test A postemergence", "format": "in vivo, Lolium multiflorum", "details": "postemergence, 10 days", "summary_of_the_method": "as §1"}, "soybean [21]": {"test_system": "soybean", "assay": "Test A postemergence", "format": "in vivo, Glycine max", "details": "postemergence, 10 days", "summary_of_the_method": "as §1"}, "galium": {"test_system": "galium", "assay": "Test A postemergence", "format": "in vivo, Galium aparine", "details": "postemergence, 10 days", "summary_of_the_method": "as §1"}, "[22]": {"details": "500 g ai/ha, visual injury after 10 days, 0 is no effect, 100 is complete control"}, "[23]": {"details": "125 g ai/ha, 0 to 100 scale, 0 no effect, 100 complete control"}, "[24]": {"details": "500 g ai/ha, visual injury, 0 to 100 scale (0 no effect, 100 complete control)"}}}
{"smiles": "Cc1ccc(-n2cnc(C(C)(C)O)n2)cc1C(=O)N1C[C@H](C)Oc2c(Cl)cccc21", "note": "[Compound 149]", "values": [{"measurement": "Plant response rating, Wheat", "setting": "wheat [1]; 125 g ai/ha", "value": 30}, {"measurement": "Plant response rating, Wheat", "setting": "wheat [1]; [22]", "value": 90}, {"measurement": "Plant response rating, Foxtail, Giant", "setting": "foxtail, giant; 125 g ai/ha", "value": 100}, {"measurement": "Plant response rating, Foxtail, Giant", "setting": "foxtail, giant; [22]", "value": 100}, {"measurement": "Plant response rating, Corn", "setting": "corn [2]; 125 g ai/ha", "value": 60}, {"measurement": "Plant response rating, Corn", "setting": "corn [2]; [22]", "value": 90}, {"measurement": "Plant response rating, Pigweed, Palmer", "setting": "pigweed, palmer [3]; 125 g ai/ha", "value": 90}, {"measurement": "Plant response rating, Pigweed, Palmer", "setting": "pigweed, palmer [3]; [22]", "value": 100}, {"measurement": "Oat, Wild plant response rating", "setting": "oat, wild [4]; [23]", "value": 90}, {"measurement": "Plant response rating, Oat, Wild", "setting": "oat, wild [4]; [24]", "value": 90}, {"measurement": "Blackgrass plant response rating", "setting": "blackgrass [5]; [23]", "value": 90}, {"measurement": "Plant response rating, Blackgrass", "setting": "blackgrass [5]; [24]", "value": 90}, {"measurement": "Corn plant response rating", "setting": "corn [6]; [23]", "value": 90}, {"measurement": "Plant response rating, Corn", "setting": "corn [6]; [24]", "value": 100}, {"measurement": "Plant response rating, Sedge, Umbrella", "setting": "sedge, umbrella", "value": 100}, {"measurement": "Horseweed plant response rating", "setting": "horseweed; [23]", "value": 50}, {"measurement": "Plant response rating, Horseweed", "setting": "horseweed; [24]", "value": 70}, {"measurement": "Barnyardgrass plant response rating", "setting": "barnyardgrass [7]; [23]", "value": 50}, {"measurement": "Plant response rating, Barnyardgrass", "setting": "barnyardgrass [7]; [24]", "value": 100}, {"measurement": "Plant response rating, Barnyardgrass", "setting": "barnyardgrass [8]; 125 g ai/ha", "value": 100}, {"measurement": "Plant response rating, Barnyardgrass", "setting": "barnyardgrass [8]; 500 g ai/ha", "value": 100}, {"measurement": "Plant response rating, Blackgrass", "setting": "blackgrass [9]; 125 g ai/ha", "value": 80}, {"measurement": "Plant response rating, Blackgrass", "setting": "blackgrass [9]; [22]", "value": 90}, {"measurement": "Plant response rating, Barnyardgrass", "setting": "barnyardgrass [10]", "value": 35}, {"measurement": "Wheat plant response rating", "setting": "wheat [11]; [23]", "value": 90}, {"measurement": "Plant response rating, Wheat", "setting": "wheat [11]; [24]", "value": 90}, {"measurement": "Plant response rating, Ragweed", "setting": "ragweed [12]; 125 g ai/ha", "value": 100}, {"measurement": "Plant response rating, Ragweed", "setting": "ragweed [12]; [22]", "value": 90}, {"measurement": "Plant response rating, Ducksalad", "setting": "ducksalad", "value": 75}, {"measurement": "Plant response rating, Oat, Wild", "setting": "oat, wild [13]; 125 g ai/ha", "value": 90}, {"measurement": "Plant response rating, Oat, Wild", "setting": "oat, wild [13]; [22]", "value": 90}, {"measurement": "Plant response rating, Kochia", "setting": "kochia [14]; 125 g ai/ha", "value": 100}, {"measurement": "Plant response rating, Kochia", "setting": "kochia [14]; [22]", "value": 100}, {"measurement": "Pigweed, Palmer plant response rating", "setting": "pigweed, palmer [15]; [23]", "value": 80}, {"measurement": "Plant response rating, Pigweed, Palmer", "setting": "pigweed, palmer [15]; [24]", "value": 90}, {"measurement": "Plant response rating, Ryegrass, Italian", "setting": "ryegrass, Italian [16]; 125 g ai/ha", "value": 100}, {"measurement": "Plant response rating, Ryegrass, Italian", "setting": "ryegrass, Italian [16]; [22]", "value": 100}, {"measurement": "Plant response rating, Rice", "setting": "rice", "value": 20}, {"measurement": "Plant response rating, Soybean", "setting": "soybean [17]; 125 g ai/ha", "value": 100}, {"measurement": "Plant response rating, Soybean", "setting": "soybean [17]; [22]", "value": 100}, {"measurement": "Kochia plant response rating", "setting": "kochia [18]; [23]", "value": 80}, {"measurement": "Plant response rating, Kochia", "setting": "kochia [18]; [24]", "value": 90}, {"measurement": "Ragweed plant response rating", "setting": "ragweed [19]; [23]", "value": 80}, {"measurement": "Plant response rating, Ragweed", "setting": "ragweed [19]; [24]", "value": 90}, {"measurement": "Ryegrass, Italian plant response rating", "setting": "ryegrass, Italian [20]; [23]", "value": 80}, {"measurement": "Plant response rating, Ryegrass, Italian", "setting": "ryegrass, Italian [20]; [24]", "value": 100}, {"measurement": "Soybean plant response rating", "setting": "soybean [21]; [23]", "value": 100}, {"measurement": "Plant response rating, Soybean", "setting": "soybean [21]; [24]", "value": 100}, {"measurement": "Galium plant response rating", "setting": "galium; [23]", "value": 100}, {"measurement": "Plant response rating, Galium", "setting": "galium; [24]", "value": 100}]}
